Results as given in patent US11008346B2, “Beta-lactamase inhibitors” (priority 2014, dated 2021).

What was measured:
SHV-5 β-lactamase = target: T1, SHV-5 β-lactamase (Klebsiella pneumoniae, UniProt P0A3M1); assay: β-lactamase enzyme inhibition, SHV-5; format: biochemical
T1 construct: made in house; host or cells: E. coli BL21(DE3)
Protocol: (§1) For SHV-5, Kpc-2, p99AmpC and OXA-1 β-lactamases, E. coli BL21(DE3) bacterial cells carrying expression plasmids (expressed as native untagged proteins) for the individual β-lactamases were grown in 1 L of Superbroth (Teknova Inc. Hollister, Calif.) supplemented with 100 μg/ml kanamycin selection and 1×5052 (0.5% glycerol, 0.05% glucose and 0.2% α-lactose) at 35° C. for 18-20 hours. Cells were harvested by centrifugation (4,000×g, 4° C., 20 min), resuspended in 50 ml of 10 mM HEPES pH 7.5 ( 1/20 of the initial volume). The cells were lysed by sonication (5 pulses of 45 seconds) at 45 W on ice. The lysates were clarified by centrifugation at 10,000×g for 40 minutes at 4° C. Samples were diluted 5-fold in 50 mM sodium acetate pH 5.0, stored overnight at 4° C., after which they were centrifuged at 10,000×g for 30 minutes to clarify, and filtered through 0.45 μm filters. The samples were loaded onto a 5 ml Capto S sepharose cation exchange column (GE Healthcare) pre-equilibrated with 50 mM sodium acetate pH 5.0. The column was washed with 5 column volumes of 50 mM sodium acetate pH 5.0 to wash out unbound protein and a linear gradient of NaCl (0 to 500 mM) was used to elute the protein (over 16 CV) from the column. Fractions were assayed for […] activity using Centa (Calbiochem, Gibbstown, N.J.) or Nitrocefin (EMD Millipore chemicals, Darmstadt, Germany) as a reporter β-lactamase substrate for activity in the isolated fractions. Active fractions were pooled, concentrated and further purified by gel filtration chromatography on a Superdex 75 prep grade gel filtration column (GE Healthcare, Piscataway, N.J.) pre-equilibrated in 50 mM Hepes pH 7.5, 150 mM NaCl. Active fractions were pooled, concentrated, and quantitated by BCA protein determination (Thermo Scientific, Rockford, Ill.), dialyzed into PBS and frozen at −80° C. in 20% glycerol until use.
(§2) An equal volume of diluted enzyme stock was added, and the plates were incubated at 37° C. for 15 min. Nitrocefin was used as substrate for p99 AmpC, VIM-2 and OXA-1 and dispensed into each well at a final concentration of 100 μM. Absorbance at 486 nm was immediately monitored for 10 min using a Biotek Powerwave XS2 microplate spectrophotometer using the GEN5 software package (Biotek Instruments, Winooski Vt.). In an analogous fashion, imipenem was used as substrate for KPC-2 and Cefotaxime was used for SHV-5, while changes in absorbance upon hydrolysis of the β-lactam ring were monitored at 300 nm and 260 nm respectively in UV-transparent 96-well microtiter assay plates. Maximum rates of hydrolysis were compared to those in control wells (without inhibitors), and percentages of enzyme inhibition were calculated for each concentration of inhibitor. The concentration of inhibitor needed to reduce the initial rate of hydrolysis of substrate by 50% (IC50) was calculated as the residual activity of β-lactamase at 486 nm using GraFit version 7 kinetics software package (Erithacus Software, Surrey, UK).
(§3) Using the methodology described above, examples of the current invention were evaluated for their ability to inhibit β-lactamase enzymes from all four Ambler classifications (A through D). […] NT=Not tested.

[1] = tested on: E. cloacae 144200 expressing Class C P99 AmpC; assay: broth microdilution MIC, E. cloacae P99; format: cell-based; settings: Fixed CAZ (ceftazidime) 4 μg/mL
Source text: (§4) To determine the ability of test compounds to potentiate the inhibition of the growth of bacterial strains that produce beta-lactamase enzymes, classic cell based broth microdilution MIC assays were employed. Six bacteria strains producing beta-lactamase enzymes were used: E. coli expressing the Class A Extended Spectrum Beta-Lactamase (ESBL) CTX-M-15, E. cloacae expressing the Class C P99, K. pneumoniae expressing the Class A carbapenemase KPC-3, P. aeruginosa expressing the Class B carbapenemase VIM-2, K pneumoniae expressing the class A carbapenemase KPC-2 and the class B carbapenemase VIM-4, and S. aureus producing the Class A penicillinase PC-1. The assay was conducted in Cation Adjusted Mueller Hinton Broth (CAMHB, BD #212322, BD Diagnostic Systems, Sparks, Md.). Bacteria strains were grown for 3-5 hours in CAMBH broth. Test compounds were added to a microtiter plate in 2-fold serial dilutions in CAMHB in a final concentration range of 32 μg/mL to 0.25 μg/ml. An overlay of CAMHB containing a Beta-lactam was added to the compounds at a final static concentration of 4 μg/ml. […] In addition to the titration of test compounds the MICs of a panel of control beta-lactams is also tested to ensure the strains are behaving consistently from test to test. Once the test compound and antibiotics are added the plates can be inoculated according to CLSI broth microdilution method. After inoculation the plates are incubated for 16-20 hours at 37° C., then the Minimal Inhibitory Concentration (MIC) of the test compound is determined visually.
(§5) Using the methodology described above, examples of the current invention were evaluated for their ability to inhibit the growth of β-lactamase-producing bacteria in the presence of a β-lactam antibiotic.
(§6) Representative results are shown in Table 4 where A represents an MIC of the fixed β-lactam antibiotic in the presence of >32 µg/mL of a β-lactamase inhibitor of exemplary compounds, B represents the MIC in the presence of between 8 and 32 µg/mL of a β-lactamase inhibitor of exemplary compounds, and C represents the MIC in the presence of ≤4 µg/mL of a β-lactamase inhibitor of exemplary compounds. NT=Not Tested.

[2] = tested on: K. pneumoniae 156319 expressing KPC-3; assay: broth microdilution MIC, K. pneumoniae KPC-3; format: cell-based; settings: Fixed Mero (meropenem) 4 μg/mL
Source text: as §4, §5, §6

[3] = tested on: K. pneumoniae A-1797 expressing KPC-2 and VIM-4; assay: broth microdilution MIC, K. pneumoniae KPC-2 and VIM-4; format: cell-based; settings: Fixed Mero (meropenem) 4 μg/mL
Source text: as §4, §5, §6

KPC-2 β-lactamase = target: T2, KPC-2 β-lactamase (Klebsiella pneumoniae, UniProt Q9F663); assay: β-lactamase enzyme inhibition, KPC-2; format: biochemical; settings: imipenem substrate, 300 nm; 15 min at 37° C. preincubation; read-out: IC50 KPC-2 (Class A)
T2 construct: made in house; host or cells: E. coli BL21(DE3)
T2 sequence (Q9F663 25-293, looked up): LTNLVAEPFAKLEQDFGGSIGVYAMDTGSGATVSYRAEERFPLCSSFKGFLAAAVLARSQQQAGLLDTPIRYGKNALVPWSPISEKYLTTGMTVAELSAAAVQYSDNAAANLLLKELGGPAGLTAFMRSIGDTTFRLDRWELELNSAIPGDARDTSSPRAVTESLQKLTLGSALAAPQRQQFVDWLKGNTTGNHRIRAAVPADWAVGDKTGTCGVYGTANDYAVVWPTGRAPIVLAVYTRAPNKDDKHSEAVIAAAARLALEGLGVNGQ
Protocol: as §1, §2, §3

[4] = tested on: E. coli ESBL4 expressing CTX-M-15; assay: broth microdilution MIC, E. coli CTX-M-15; format: cell-based; settings: Fixed CAZ (ceftazidime) 4 μg/mL
Source text: as §4, §5, §6

p99 AmpC β-lactamase = target: T3, p99 AmpC β-lactamase (Enterobacter cloacae, UniProt P05364); assay: β-lactamase enzyme inhibition, p99 AmpC; format: biochemical
T3 construct: made in house; host or cells: E. coli BL21(DE3)
T3 sequence (P05364 21-381): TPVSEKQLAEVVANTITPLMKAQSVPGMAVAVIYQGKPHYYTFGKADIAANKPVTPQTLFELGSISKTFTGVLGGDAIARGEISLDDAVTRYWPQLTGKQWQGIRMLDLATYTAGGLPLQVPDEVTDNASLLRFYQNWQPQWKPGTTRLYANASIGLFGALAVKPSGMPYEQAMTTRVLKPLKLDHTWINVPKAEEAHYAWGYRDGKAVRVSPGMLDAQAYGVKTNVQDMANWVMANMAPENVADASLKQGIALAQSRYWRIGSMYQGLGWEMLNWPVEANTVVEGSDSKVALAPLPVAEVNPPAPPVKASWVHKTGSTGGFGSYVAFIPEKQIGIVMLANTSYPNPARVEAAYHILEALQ
Protocol: as §1, §2
Using the methodology described above, examples of the current invention were evaluated for their ability to inhibit β-lactamase enzymes from all four Ambler classifications (A through D).

[5] = target: T4, VIM-2 metallo β-lactamase (Pseudomonas aeruginosa, UniProt Q9K2N0); assay: β-lactamase enzyme inhibition, VIM-2; format: biochemical; settings: Nitrocefin 100 μM, 486 nm; 15 min at 37° C. preincubation; read-out: IC50 VIM-2 (Class B)
T4 construct: made in house; host or cells: E. coli BL21(DE3)
Protocol: For VIM-2 metallo β-lactamase, the procedure was identical with the following exceptions, first the protein was not pH adjusted to pH 5 with 50 mM sodium acetate. Second, the chromatography step was changed to a 5 ml Q sepharose anion exchange column pre-equilibrated with 50 mM Hepes pH 7.5, and elution of the protein was achieved by a linear gradient of NaCl (0-600 mM). Finally, the VIM-2 purification required a second run (3rd step) on the Q sepharose anion exchange column to achieve acceptable purity (>90%).
as §2, §3

T1 sequence (P0A3M1 22-286): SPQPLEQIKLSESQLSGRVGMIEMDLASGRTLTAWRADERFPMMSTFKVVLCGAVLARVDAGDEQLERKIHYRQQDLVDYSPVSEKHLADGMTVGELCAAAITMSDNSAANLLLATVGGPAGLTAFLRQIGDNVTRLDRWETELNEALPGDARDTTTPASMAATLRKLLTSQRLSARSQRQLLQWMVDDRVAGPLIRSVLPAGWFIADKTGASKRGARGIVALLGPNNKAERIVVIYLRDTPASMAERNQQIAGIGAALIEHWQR

Compound	IC50 (SHV-5 β-lactamase) [nM]	MIC of exemplary compounds in presence of fixed β-lactams, E. cl. 144200 p99 AmpC [1]	MIC of exemplary compounds in presence of fixed β-lactams, K.P. 156319 KPC-3 [2]	MIC of exemplary compounds in presence of fixed β-lactams, K.P. A-1797 KPC-2 VIM-4 [3]	IC50 (KPC-2 β-lactamase) [nM]	MIC of exemplary compounds in presence of fixed β-lactams, E. coli ESBL4 CTX-M-15 [4]	IC50 (p99 AmpC β-lactamase) [nM]	IC50 [5] [nM]
CN(C)S(=O)(=O)CCC(=O)N[C@H]1Cc2cccc(C(=O)O)c2OB1O [Example 55, (R)-3-(3-Dimethylsulfamoyl-propionylamino)-2-hydroxy-3,4-dihydro-2H-benzo[e][1,2]oxaborinine-8-carboxylic acid]	< 100	C (C represents the MIC in the presence of ≤4 g/mL of a β-lactamase inhibitor)	C (C represents the MIC in the presence of ≤4 g/mL of a β-lactamase inhibitor)	B (B represents the MIC in the presence of between 8 and 32 g/mL of a β-lactamase inhibitor)	< 100	C (C represents the MIC in the presence of ≤4 g/mL of a β-lactamase inhibitor)	< 100	1000 to 10000
COC(=O)NCC(=O)N[C@H]1Cc2cccc(C(=O)O)c2OB1O [Example 56, (R)-2-Hydroxy-3-(2-methoxycarbonylamino-acetylamino)-3,4-dihydro-2H-benzo[e][1,2]oxaborinine-8-carboxylicacid]	< 100	C (C represents the MIC in the presence of ≤4 g/mL of a β-lactamase inhibitor)	C (C represents the MIC in the presence of ≤4 g/mL of a β-lactamase inhibitor)	B (B represents the MIC in the presence of between 8 and 32 g/mL of a β-lactamase inhibitor)	100 to 1000	C (C represents the MIC in the presence of ≤4 g/mL of a β-lactamase inhibitor)	< 100	1000 to 10000
NS(=O)(=O)CCCC(=O)N[C@H]1Cc2cccc(C(=O)O)c2OB1O [Example 53, (R)-2-Hydroxy-3-(4-sulfamoyl-butyrylamino)-3,4-dihydro-2H-benzo[e][1,2]oxaborinine-8-carboxylic acid]	< 100	C (C represents the MIC in the presence of ≤4 g/mL of a β-lactamase inhibitor)	C (C represents the MIC in the presence of ≤4 g/mL of a β-lactamase inhibitor)	B (B represents the MIC in the presence of between 8 and 32 g/mL of a β-lactamase inhibitor)	< 100	C (C represents the MIC in the presence of ≤4 g/mL of a β-lactamase inhibitor)	< 100	10000 to 100000
